The values below come from patent publication US9695144B2, “Dibenzazepine derivatives and use thereof” (Purdue Pharma L.P., priority 2013, dated 2017).

Like-named read-outs stand apart in the source and are kept apart here. Where only a bound is given, the exact number is not on record here.

Test [1] concerns the target human Nav1.7 (Homo sapiens, UniProt Q15858). Description: FLIPR or FLIPR TETRA sodium dye assay for sodium channel blocking activity. Type of test: cell-based.
Test [2] has as its target T1, hNav1.7 (Homo sapiens, UniProt Q15858). Particulars: read-out: Nav1.7 Activity (μM) EP assay Ki; affinity for the inactivated state of the channel; hNav1.7 HEK-293 cells.
Test [3] deals with T1, hNav1.7. Description: cell-based.
The target in test [4] is Nav1.3 (Homo sapiens, UniProt Q9NY46). As to conditions: read-out: TTX IC50; cited from earlier work.
Test [5] has as its target Nav1.1 (Homo sapiens, UniProt P35498). As to conditions: read-out: TTX IC50; cited from earlier work.
The target in test [6] is Nav1.6 (Homo sapiens, UniProt Q9UQD0). As to conditions: read-out: TTX IC50; cited from earlier work.
For test [7], the target named is Nav1.9 (Homo sapiens, UniProt Q9UI33). As to conditions: read-out: TTX IC50; cited from earlier work.
Test [8] deals with Nav1.8 (Homo sapiens, UniProt Q9Y5Y9). Particulars: read-out: TTX IC50; cited from earlier work.
For test [9], the target named is Nav1.2 (Homo sapiens, UniProt Q99250). As to conditions: read-out: TTX IC50; cited from earlier work.
Where [10] appears, read: read-out: Nav1.7 Activity (μM) FLIPR assay IC50.
Where [11] appears, read: recombinant HEK293 cells expressing human Nav1.7 alpha subunit, veratridine and scorpion venom as agonists, read-out: Nav1.7 Activity (μM) FLIPR assay IC50.

human Nav1.7, sequence (Q15858 1-1977 isoform Q15858-3): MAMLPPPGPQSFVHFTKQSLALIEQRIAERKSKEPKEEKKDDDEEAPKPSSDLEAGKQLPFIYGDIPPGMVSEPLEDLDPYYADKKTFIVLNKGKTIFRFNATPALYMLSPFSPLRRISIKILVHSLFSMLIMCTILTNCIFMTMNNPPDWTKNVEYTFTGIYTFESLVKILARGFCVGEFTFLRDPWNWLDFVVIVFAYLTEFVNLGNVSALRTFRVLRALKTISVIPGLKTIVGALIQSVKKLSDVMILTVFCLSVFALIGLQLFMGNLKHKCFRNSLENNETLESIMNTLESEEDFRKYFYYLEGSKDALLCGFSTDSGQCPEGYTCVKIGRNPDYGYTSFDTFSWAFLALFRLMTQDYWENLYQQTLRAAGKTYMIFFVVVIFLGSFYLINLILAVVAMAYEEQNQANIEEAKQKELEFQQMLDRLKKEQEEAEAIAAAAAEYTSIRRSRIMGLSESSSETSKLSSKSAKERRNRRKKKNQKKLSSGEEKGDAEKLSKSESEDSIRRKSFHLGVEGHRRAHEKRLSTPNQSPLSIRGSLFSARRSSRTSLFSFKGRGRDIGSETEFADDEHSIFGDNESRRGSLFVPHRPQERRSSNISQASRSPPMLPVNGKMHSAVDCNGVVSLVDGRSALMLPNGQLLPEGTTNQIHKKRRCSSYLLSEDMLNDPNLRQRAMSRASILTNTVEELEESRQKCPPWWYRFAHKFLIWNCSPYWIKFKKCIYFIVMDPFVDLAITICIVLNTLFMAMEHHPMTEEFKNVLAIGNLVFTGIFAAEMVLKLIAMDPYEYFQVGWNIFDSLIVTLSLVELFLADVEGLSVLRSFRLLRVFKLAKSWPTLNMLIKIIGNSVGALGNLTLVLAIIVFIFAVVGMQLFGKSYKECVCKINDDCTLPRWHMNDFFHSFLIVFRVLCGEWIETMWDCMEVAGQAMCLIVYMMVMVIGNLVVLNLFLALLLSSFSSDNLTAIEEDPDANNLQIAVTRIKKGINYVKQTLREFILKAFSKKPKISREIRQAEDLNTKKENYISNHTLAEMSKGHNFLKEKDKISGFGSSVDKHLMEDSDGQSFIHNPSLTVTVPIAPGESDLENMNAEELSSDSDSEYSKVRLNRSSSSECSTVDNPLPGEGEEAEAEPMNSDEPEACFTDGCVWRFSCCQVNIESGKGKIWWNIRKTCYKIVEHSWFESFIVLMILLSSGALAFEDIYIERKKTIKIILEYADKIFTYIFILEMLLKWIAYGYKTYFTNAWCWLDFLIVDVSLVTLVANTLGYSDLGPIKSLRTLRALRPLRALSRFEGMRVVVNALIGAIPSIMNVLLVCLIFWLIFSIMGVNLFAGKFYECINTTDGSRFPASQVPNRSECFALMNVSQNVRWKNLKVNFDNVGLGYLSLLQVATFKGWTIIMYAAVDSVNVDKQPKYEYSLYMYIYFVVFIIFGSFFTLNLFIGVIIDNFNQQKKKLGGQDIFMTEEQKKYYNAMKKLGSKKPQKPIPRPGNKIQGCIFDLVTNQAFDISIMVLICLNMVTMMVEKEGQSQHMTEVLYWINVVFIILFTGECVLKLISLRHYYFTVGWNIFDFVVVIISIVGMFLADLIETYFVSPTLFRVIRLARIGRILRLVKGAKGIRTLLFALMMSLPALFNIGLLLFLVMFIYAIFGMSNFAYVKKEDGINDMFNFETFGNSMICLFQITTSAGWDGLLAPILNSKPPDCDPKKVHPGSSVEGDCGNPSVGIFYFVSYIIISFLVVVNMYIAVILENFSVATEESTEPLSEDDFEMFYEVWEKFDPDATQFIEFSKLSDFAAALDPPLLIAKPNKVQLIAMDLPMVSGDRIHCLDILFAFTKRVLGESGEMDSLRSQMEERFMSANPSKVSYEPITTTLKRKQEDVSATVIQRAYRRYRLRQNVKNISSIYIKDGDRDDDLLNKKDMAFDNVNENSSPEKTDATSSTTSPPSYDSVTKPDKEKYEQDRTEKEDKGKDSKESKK
T1 sequence (Q15858 1-1977 isoform Q15858-3): as above
Nav1.2, sequence (Q99250 whole entry, looked up): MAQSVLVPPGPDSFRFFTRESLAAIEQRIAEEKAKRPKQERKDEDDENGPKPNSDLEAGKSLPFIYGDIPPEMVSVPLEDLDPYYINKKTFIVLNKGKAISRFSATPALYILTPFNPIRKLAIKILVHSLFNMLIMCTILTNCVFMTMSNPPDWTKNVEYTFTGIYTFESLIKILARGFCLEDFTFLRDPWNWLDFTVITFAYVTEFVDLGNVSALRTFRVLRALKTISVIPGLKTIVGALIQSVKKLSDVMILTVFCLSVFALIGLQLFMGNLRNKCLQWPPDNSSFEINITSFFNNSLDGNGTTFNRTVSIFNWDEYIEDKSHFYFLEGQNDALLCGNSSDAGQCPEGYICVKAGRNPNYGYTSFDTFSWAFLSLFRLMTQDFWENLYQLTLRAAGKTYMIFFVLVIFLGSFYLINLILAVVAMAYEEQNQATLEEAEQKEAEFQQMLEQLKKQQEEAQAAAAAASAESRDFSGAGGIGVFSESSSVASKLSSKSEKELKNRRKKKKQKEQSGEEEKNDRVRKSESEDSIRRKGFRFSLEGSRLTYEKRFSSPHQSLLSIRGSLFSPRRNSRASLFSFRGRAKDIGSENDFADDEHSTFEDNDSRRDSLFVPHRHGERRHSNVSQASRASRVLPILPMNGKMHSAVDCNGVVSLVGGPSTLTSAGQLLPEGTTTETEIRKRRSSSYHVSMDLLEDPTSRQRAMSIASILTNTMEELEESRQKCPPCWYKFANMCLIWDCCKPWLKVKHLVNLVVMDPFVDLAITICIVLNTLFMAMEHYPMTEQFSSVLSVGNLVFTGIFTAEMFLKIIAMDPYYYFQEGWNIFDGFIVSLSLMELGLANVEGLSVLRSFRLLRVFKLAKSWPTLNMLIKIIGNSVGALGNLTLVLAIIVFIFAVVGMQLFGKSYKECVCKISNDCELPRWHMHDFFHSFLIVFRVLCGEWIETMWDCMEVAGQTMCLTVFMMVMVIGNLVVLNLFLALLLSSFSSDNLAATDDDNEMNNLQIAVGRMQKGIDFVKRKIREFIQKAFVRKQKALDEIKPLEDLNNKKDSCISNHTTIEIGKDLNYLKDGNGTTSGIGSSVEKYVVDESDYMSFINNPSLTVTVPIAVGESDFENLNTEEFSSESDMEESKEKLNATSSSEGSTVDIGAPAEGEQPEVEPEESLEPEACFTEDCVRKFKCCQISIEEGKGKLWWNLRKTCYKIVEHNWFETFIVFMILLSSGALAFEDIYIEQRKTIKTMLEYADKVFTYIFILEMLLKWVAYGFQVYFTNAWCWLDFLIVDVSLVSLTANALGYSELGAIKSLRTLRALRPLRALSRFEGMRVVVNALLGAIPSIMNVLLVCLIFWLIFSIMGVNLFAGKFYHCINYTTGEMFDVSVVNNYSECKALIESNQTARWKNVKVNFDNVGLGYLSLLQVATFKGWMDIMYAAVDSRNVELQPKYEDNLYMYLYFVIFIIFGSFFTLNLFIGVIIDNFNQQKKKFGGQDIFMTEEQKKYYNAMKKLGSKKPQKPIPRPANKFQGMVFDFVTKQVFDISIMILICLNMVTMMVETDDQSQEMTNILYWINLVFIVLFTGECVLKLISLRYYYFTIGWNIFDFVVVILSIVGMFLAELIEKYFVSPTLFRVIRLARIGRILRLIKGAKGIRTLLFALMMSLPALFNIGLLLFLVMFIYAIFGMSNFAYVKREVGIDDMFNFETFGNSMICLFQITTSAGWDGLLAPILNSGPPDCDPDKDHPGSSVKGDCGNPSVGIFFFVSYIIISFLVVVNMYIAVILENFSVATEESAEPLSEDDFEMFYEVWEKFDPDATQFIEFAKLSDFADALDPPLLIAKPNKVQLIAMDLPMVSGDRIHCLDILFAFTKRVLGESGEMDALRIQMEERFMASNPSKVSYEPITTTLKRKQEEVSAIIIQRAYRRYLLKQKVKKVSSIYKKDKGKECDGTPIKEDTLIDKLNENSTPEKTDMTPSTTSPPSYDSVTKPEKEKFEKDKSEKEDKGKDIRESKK

`CN1c2ccc(Cl)cc2CCc2cc(-c3cccc(C(N)=O)n3)ccc21` [Compound 39, 6-(8-chloro-5-methyl-10,11-dihydro-5H-dibenzo[b,f]azepin-2-yl)picolinamide]: the IC50 – broadly, the concentration at which inhibition is half-maximal – in test [1] (setting [10]) came out at 0.842 ± 0.04 µM. Turning to `NC(=O)c1cccc(-c2ccc3c(c2)CCc2cc(Cl)ccc2N3)n1` [Compound 40, 6-(8-chloro-10,11-dihydro-5H-dibenzo[b,f]azepin-2-yl)picolinamide], in test [2], the Ki is 0.648 ± 0.123 µM. In test [1] (setting [10]), the IC50 is 1.96 ± 0.036 µM. The molecule `CCN1c2ccc(Cl)cc2CCc2cc(-c3cccc(C(N)=O)n3)ccc21` [Compound 41, 6-(8-chloro-5-ethyl-10,11-dihydro-5H-dibenzo[b,f]azepin-2-yl)picolinamide] returned an IC50 in [1] above 20 µM. On to `CC(=O)N1c2ccc(Cl)cc2CCc2cc(-c3cccc(C(N)=O)n3)ccc21` [Compound 42, 6-(5-acetyl-8-chloro-10,11-dihydro-5H-dibenzo[b,f]azepin-2-yl)picolinamide], for which the Ki in test [2] was 3.03 ± 1.26 µM. Also, the IC50 in test [1] (setting [10]) was 7.62 ± 0.797 µM.

As for `OC[C@@H](O)c1cccc(-c2ccc3c(c2)CNc2cc(C(F)(F)F)ccc2O3)n1` [Compound 43, (S)-1-(6-(8-(trifluoromethyl)-10,11-dihydrodibenzo[b,f][1,4]oxazepin-2-yl)pyridin-2-yl)ethane-1,2-diol], the IC50 in test [1] (setting [10]) was 2.57 ± 0.059 µM. Turning to `CN1Cc2cc(-c3cccc([C@H](O)CO)n3)ccc2Oc2ccc(C(F)(F)F)cc21` [Compound 44, (S)-1-(6-(10-methyl-8-(trifluoromethyl)-10,11-dihydrodibenzo[b,f][1,4]oxazepin-2-yl)pyridin-2-yl)ethane-1,2-diol], in test [1] (setting [11]), the IC50 stood at 0.373 ± 0.047 µM.

Turning to `CN1Cc2cc(C(F)(F)F)ccc2Oc2ccc(-c3cccc([C@H](O)CO)n3)cc21` [Compound 45, (S)-1-(6-(10-methyl-2-(trifluoromethyl)-10,11-dihydrodibenzo[b,f][1,4]oxazepin-8-yl)pyridin-2-yl)ethane-1,2-diol], the IC50 in [1] (setting [10]) was 1.03 ± 0.067 µM.

Turning to `CN1c2ccc(-c3cccc([C@H](O)CO)n3)cc2CCc2cc(C(F)(F)F)ccc21` [Compound 46, (S)-1-(6-(5-methyl-8-(trifluoromethyl)-10,11-dihydro-5H-dibenzo[b,f]azepin-2-yl)pyridin-2-yl)ethane-1,2-diol], in [2], the Ki came to 1.03 ± 0.227 µM. Further, the IC50 in [1] (setting [10]) amounted to 1.08 ± 0.106 µM. In the case of `C[C@H](Nc1cc(C(N)=O)nc(-c2ccc3c(c2)CN(C)c2cc(C(F)(F)F)ccc2O3)n1)C(N)=O` [Compound 47, (S)-6-((1-amino-1-oxopropan-2-yl)amino)-2-(10-methyl-8-(trifluoromethyl)-10,11-dihydrodibenzo[b,f][1,4]oxazepin-2-yl)pyrimidine-4-carboxamide], the half-maximal inhibitory concentration (IC50) in test [1] (setting [11]) is 4.79 ± 0.628 µM. In the case of `CN1Cc2cc(-c3cccc([C@H](O)[C@@H](O)C(N)=O)n3)ccc2Oc2ccc(C(F)(F)F)cc21` [Compound 48, (2R,3S)-2,3-dihydroxy-3-(6-(10-methyl-8-(trifluoromethyl)-10,11-dihydrodibenzo[b,f][1,4]oxazepin-2-yl)pyridin-2-yl)propanamide], the IC50 in test [1] (setting [10]) is 1.05 ± 0.069 µM.

As for `NC(=O)CN1Cc2cc(-c3cccc([C@H](O)CO)n3)ccc2Oc2ccc(C(F)(F)F)cc21` [Compound 49, (S)-2-(2-(6-(1,2-dihydroxyethyl)pyridin-2-yl)-8-(trifluoromethyl)dibenzo-[b,f][1,4]oxazepin-10(11H)-yl)acetamide], the Ki in [3] was determined as 1.8 ± 0.794 µM.

As for `NC1=N[C@H](O)[C@H]2[C@H]3O[C@]4(O)O[C@@H]([C@@H](O)[C@@]2(N1)[C@@H]4O)[C@]3(O)CO` [TTX, tetrodotoxin], the IC50 in [4] was 0.015 µM; in test [5], 0.01 µM; in [6], 0.006 µM; in test [7], 1 µM; in test [8], 50 µM; in [9], 0.01 µM.
